Measurements from patent US20240246934A1, “QUINAZOLINE-BASED COMPOUND, COMPOSITION, AND APPLICATION OF QUINAZOLINE-BASED COMPOUND” (BEIJING SCITECH-MQ PHARMACEUTICALS LIMITED, priority 2021, published 2024).
Where two headings read alike, the source gives them in different places.

Experiments:
[1] = target: T1, HER2 kinase (Homo sapiens, UniProt P04626); experiment: HER2 kinase assay (ULight/PT66 TR-FRET); type: biochemical
T1 construct: purchased Carna Biosciences 08-016
Method: (§1) Preparation of compound solution: The assay compound was dissolved in DMSO to form a 10 mM stock solution. Prior to use, the compound was diluted to 0.25 mM in DMSO (100 times the final concentration of the diluent) and then subjected to a 3-fold concentration gradient dilution to obtain a total of 11 concentrations. The solution was diluted with buffer to a diluent with 4× the final concentration when the compound was added.
(§2) HER2 kinase assay: buffer was prepared, and 40 nM 4×Her2 kinase solution, 40 μM 4×ATP solution, and 400 nM 4×ULight™-labeled Ploy GT Peptide substrate solution were prepared using the buffer. After the preparation was completed, the enzyme was mixed with different concentrations of compounds pre-prepared by dilution, and the mixture was left to stand at room temperature for 5 min. Each concentration was performed in duplicate. The corresponding substrate and ATP were added and the mixture was reacted at room temperature for 120 minutes (with negative and positive controls). After completion of the reaction, PT66 detection antibody was added. The mixture was incubated at room temperature for 60 minutes, and then detected by Envision.
(§3) Compound concentrations and corresponding inhibition rates were input into GraphPad Prism for processing to calculate IC50 values.

[2] = target: EGFR^WT kinase (Homo sapiens, UniProt P00533); experiment: EGFR^WT kinase assay (ULight/PT66 TR-FRET); type: biochemical
Method: as §1
as §2, with “EGFR^WT kinase assay:” for “HER2 kinase assay:”, “prepared, and 3.48 nM 4×EGFR” for “prepared, and 40 nM 4×Her2”, “3.48 nM 4×EGFR kinase solution,” for “40 nM 4×Her2 kinase solution,”, “kinase solution, 600 μM 4×ATP” for “kinase solution, 40 μM 4×ATP”, “nM 4×ULight™-labeled JAK-1 (Try1023) Peptide substrate” for “nM 4×ULight™-labeled Ploy GT Peptide substrate”
as §3

[3] = target: Ba/F3 HER2 A775_G776insYVMA cells (Homo sapiens, UniProt P04626, DUP772-775, cells depend on it); experiment: Inhibition of cell proliferation, CTG method, Ba/F3 HER2 A775_G776insYVMA; type: cell-based; conditions: 72 hours, read-out: Ba/F3 HER2 A775-G776insYVMA IC50
Text: The present application examined the in vitro anti-proliferative activity of the compounds of the present disclosure against in vitro cultured BT474, NCI-N87, Ba/F3-EGFR-VIII and Ba/F3 HER2 A775_G776insYVMA and Ba/F3 EGFR D770_N771insSVD cell lines by CTG method.
Cell lines: BT474 (from the cell bank of Chinese Academy of Sciences), NCI-N87 (from ATCC), Ba/F3-EGFR-VIII, Ba/F3 HER2 A775_G776insYVMA and Ba/F3 EGFR D770_N771insSVD (all from KYinno Biotechnology (Beijing) Co., Ltd.); all of the above cells were cultured with RPMI1640 medium containing 10% fetal bovine serum, 100 U/mL penicillin, and 100 μg/mL streptomycin in the culture process.
1. The assay compound was dissolved with DMSO to form a stock solution and a gradient dilution was performed, followed by dilution with the corresponding medium to obtain a solution with 5-fold working concentration.
2. Cells in logarithmic growth phase were adjusted to specific cell densities by dilution with culture medium, and 80 μL of cell suspension was added to a 96-well plate, such that plating densities of cells of BT474, NCI-N87, Ba/F3-EGFR-VIII, Ba/F3 HER2 A775_G776insYVMA and Ba/F3 EGFR D770_N771insSVD were all 3000 cells/well. The cells of Ba/F3-EGFR-VIII, Ba/F3 HER2 A775_G776insYVMA and Ba/F3 EGFR D770_N771insSVD were used directly in the next step (treatment with compound), whereas the BT474 and NCI-N87 needed to be cultured overnight in a 37° C., 5% carbon dioxide gas incubator to adhere to the wall, and then treated with compounds.
3. […] The highest concentration of the assayed compound was 10 μM, 4-fold serial dilution, a total of 9 concentrations, and duplicate wells. A control group without compound was also set up.
4. The cells were cultured for another 72 hours, and then cell viability was detected by CTG assay kit. Signal values were read with a multifunctional plate reader (Perkin Elmer). GraphPad Prism software was used to create a dose-response curve and IC50 was calculated.

[4] = system: Ba/F3 ERBB2 A775_G776insYVMA; experiment: Efficacy in nude mouse tumor-bearing model of Ba/F3 ERBB2 A775_G776insYVMA; type: in vivo, BALB/c nude mice; conditions: 30 mg/kg
Method: In this assay, some compounds of the application were orally administered to a nude mouse tumor-bearing model of Ba/F3 ERBB2 A775_G776insYVMA to study the effect of the compounds of the application on tumor growth.
Preparation of the assay compound: an appropriate weight of the compound to be assayed was weighed, and completely dissolved in an appropriate volume of vehicle (DMSO). The mixture was vortexed or sonicated. Then an appropriate amount of Solutol was added and mixed well. Finally, sterilized drinking water was added and the mixture was mixed by stirring or vortexing to obtain a homogeneous solution or suspension.
Method: All the assays were authorized and agreed by the Animal Welfare Committee. Ba/F3 ERBB2 A775_G776insYVMA in a logarithmic growth period was inoculated subcutaneously into the right back of immunodeficient nude mice (BALB/c nude, female, 6-7 weeks of age, body weight 18±2 g) with 4×10^6 cells/rat. After the tumor grew to 150-200 mm^3, the animals were randomly divided into a treatment group and a control group. For the treatment group, a solution of each assay compound was given, and for the control group, a vehicle solution without the assay compound was given. Both of the treatment group and the control group were administered once a day for about 2 weeks. The dose of each assay article was 30 mg/kg (in terms of effective compound concentration), and the assay compounds were all prepared freshly for use. During the assay, the diameter of loaded tumors was measured twice a week, and the mice were weighed at the same time. The tumor volume (TV) was calculated by the formula: TV=½×a×b^2, where a and b denote length and width, respectively. Relative tumor volume (RTV) was calculated based on the measured results by the formula: RTV=Vt/V0, where V0 is the tumor volume measured at grouping and administration and Vt is the tumor volume at each measurement. The evaluation index of antitumor activity was the relative tumor proliferation rate T/C (%) calculated by the formula: T/C (%)=(TRTV/CRTV)×100%, TRTV: RTV of the administration group; CRTV: RTV of the control group. T and C denote the average tumor volume at a certain time point in the administration group and the control group, respectively.

[5] = Pharmacokinetics in SD rats, single intravenous injection and oral administration; type: in vivo, SD rat; conditions: for AUC(0-inf) / AUC(0-t) / Vd / half-life / bioavailability / Cmax / Tmax: SD, rat, whole blood; for bioavailability: PO 10 mg/kg vs IV 3 mg/kg, read-out: F % (bioavailability)
Method: In this assay, the pharmacokinetic characteristics of the compounds of the present application were assayed after administration of some of the compounds of the present application to SD rats by single oral administration and intravenous injection. 1. […] The mixture was stirred, vortexed and/or sonicated. Once a solution was obtained, the vehicle was gradually added to a final volume to reach the target concentration. The solution was vortexed, and sonicated to obtain a homogeneous solution. The solution was filtered through a 0.22 μm PVDF membrane. 2. […] The mixture was stirred, vortexed and/or sonicated. Once a solution was obtained, the vehicle was gradually added to a final volume to reach the target concentration. The solution was vortexed, and sonicated to obtain a homogeneous solution. […] Meanwhile, the IV group was not fasted and the PO group was fasted overnight (>12 hrs) and given food 2 hrs after drug administration. All animals had free access to water. The dosing regimen and pharmacokinetic sampling regimen are given in Table 6 and Table 7 below, respectively. […] Rats were administered according to the above regimen, and blood and brain tissue samples were collected and processed at predetermined time points (collection and processing were performed according to conventional methods in the art). […] The supernatant was diluted 2-fold with ultra-pure water, and the samples were analyzed by LC/MS. Pharmacokinetic parameters was calculated using WinNonlin software. The following pharmacokinetic parameters was calculated from the plasma drug concentration-time data: CL (clearance); Vd (apparent volume of distribution); T1/2 (elimination half-life time); Cmax (peak concentration); Tmax (time to peak); AUC (area under plasma drug concentration-time curve); MRT (mean retention time); F % (bioavailability).

[6] = Brain tissue and whole blood concentration in SD rats after oral administration; type: in vivo; conditions: rat, PO 10 mg/kg, 2 h after administration
Method: In this assay, the pharmacokinetic characteristics of the compounds of the present application were assayed after administration of some of the compounds of the present application to SD rats by single oral administration and intravenous injection.
2. […] The mixture was stirred, vortexed and/or sonicated. Once a solution was obtained, the vehicle was gradually added to a final volume to reach the target concentration. The solution was vortexed, and sonicated to obtain a homogeneous solution.
Meanwhile, the IV group was not fasted and the PO group was fasted overnight (>12 hrs) and given food 2 hrs after drug administration. All animals had free access to water. The dosing regimen and pharmacokinetic sampling regimen are given in Table 6 and Table 7 below, respectively.
Rats were administered according to the above regimen, and blood and brain tissue samples were collected and processed at predetermined time points (collection and processing were performed according to conventional methods in the art).
The supernatant was diluted 2-fold with ultra-pure water, and the samples were analyzed by LC/MS.
Brain tissues were weighed and homogenized by adding 4-fold homogenizing solution (acetonitrile/water=1/1 v/v). […] The supernatant was diluted 2-fold with ultra-pure water, and the samples were analyzed by LC/MS.

[7] = NA: Exposure was too low to be counted
[8] = PO 10 mg/kg, NA: Exposure was too low to be counted

Chain of EGFR^WT kinase (P00533 25-1210): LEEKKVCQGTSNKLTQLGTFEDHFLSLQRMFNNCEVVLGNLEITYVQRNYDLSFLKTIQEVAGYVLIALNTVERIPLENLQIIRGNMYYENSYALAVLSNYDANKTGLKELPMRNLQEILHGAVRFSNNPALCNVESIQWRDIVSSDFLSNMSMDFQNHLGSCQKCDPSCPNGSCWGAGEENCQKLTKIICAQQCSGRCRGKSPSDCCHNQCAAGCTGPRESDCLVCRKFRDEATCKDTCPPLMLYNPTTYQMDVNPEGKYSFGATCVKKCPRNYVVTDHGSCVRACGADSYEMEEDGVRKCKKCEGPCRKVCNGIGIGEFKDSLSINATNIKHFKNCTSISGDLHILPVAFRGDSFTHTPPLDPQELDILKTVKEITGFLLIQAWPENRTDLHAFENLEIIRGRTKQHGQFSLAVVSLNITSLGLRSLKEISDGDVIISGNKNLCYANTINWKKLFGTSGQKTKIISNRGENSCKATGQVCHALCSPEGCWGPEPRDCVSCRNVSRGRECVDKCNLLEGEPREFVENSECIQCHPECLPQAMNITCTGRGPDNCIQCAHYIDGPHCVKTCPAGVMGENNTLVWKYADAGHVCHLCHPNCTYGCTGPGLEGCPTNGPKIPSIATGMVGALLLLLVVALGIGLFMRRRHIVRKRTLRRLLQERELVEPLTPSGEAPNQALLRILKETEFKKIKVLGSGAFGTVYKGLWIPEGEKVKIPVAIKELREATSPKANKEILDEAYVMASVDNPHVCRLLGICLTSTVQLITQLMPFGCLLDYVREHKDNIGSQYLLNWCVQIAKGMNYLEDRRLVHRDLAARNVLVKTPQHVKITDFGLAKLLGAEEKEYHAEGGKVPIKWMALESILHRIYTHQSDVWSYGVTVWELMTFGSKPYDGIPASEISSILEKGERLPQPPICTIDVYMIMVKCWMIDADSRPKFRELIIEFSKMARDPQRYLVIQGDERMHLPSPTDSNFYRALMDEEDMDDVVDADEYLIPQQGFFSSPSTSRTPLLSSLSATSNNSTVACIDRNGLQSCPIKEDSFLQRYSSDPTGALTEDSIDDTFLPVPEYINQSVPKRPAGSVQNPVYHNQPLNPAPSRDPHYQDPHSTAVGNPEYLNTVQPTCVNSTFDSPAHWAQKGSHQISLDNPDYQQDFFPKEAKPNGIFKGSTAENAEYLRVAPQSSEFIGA
Chain of Ba/F3 HER2 A775_G776insYVMA cells (P04626 with tags, fused parts or gaps DUP772-775): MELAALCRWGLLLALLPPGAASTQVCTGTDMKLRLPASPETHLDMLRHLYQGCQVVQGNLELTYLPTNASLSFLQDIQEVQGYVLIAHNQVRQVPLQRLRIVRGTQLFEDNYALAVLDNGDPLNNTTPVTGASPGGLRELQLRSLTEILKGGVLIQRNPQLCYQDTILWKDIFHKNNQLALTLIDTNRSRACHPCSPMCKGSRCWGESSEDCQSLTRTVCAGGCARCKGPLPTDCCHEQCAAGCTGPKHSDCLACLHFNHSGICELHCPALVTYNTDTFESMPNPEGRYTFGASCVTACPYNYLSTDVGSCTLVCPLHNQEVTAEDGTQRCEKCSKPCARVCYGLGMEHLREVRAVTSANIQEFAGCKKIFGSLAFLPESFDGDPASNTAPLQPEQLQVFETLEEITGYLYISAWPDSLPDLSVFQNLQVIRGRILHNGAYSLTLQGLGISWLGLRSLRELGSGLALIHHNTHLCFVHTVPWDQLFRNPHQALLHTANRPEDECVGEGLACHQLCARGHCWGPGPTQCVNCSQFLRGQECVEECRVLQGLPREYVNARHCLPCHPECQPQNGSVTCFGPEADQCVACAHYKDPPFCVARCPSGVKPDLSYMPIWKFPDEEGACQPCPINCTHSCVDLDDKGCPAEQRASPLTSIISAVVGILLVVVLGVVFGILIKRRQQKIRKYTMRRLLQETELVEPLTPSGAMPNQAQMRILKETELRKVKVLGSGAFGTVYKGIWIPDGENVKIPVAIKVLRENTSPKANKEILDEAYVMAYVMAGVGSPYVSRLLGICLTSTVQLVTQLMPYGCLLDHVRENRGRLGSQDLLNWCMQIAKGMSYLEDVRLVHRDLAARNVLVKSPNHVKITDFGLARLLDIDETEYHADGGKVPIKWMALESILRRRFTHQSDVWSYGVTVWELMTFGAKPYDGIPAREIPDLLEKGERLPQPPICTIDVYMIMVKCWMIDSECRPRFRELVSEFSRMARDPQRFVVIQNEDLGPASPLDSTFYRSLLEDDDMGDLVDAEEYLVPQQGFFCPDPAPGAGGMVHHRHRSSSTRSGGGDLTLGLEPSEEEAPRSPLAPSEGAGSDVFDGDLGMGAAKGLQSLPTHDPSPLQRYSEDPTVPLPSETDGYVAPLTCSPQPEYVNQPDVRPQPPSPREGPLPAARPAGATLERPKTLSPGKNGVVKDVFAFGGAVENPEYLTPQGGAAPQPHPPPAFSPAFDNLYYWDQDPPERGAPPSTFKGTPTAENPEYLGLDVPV
T1 sequence (P04626 23-1255): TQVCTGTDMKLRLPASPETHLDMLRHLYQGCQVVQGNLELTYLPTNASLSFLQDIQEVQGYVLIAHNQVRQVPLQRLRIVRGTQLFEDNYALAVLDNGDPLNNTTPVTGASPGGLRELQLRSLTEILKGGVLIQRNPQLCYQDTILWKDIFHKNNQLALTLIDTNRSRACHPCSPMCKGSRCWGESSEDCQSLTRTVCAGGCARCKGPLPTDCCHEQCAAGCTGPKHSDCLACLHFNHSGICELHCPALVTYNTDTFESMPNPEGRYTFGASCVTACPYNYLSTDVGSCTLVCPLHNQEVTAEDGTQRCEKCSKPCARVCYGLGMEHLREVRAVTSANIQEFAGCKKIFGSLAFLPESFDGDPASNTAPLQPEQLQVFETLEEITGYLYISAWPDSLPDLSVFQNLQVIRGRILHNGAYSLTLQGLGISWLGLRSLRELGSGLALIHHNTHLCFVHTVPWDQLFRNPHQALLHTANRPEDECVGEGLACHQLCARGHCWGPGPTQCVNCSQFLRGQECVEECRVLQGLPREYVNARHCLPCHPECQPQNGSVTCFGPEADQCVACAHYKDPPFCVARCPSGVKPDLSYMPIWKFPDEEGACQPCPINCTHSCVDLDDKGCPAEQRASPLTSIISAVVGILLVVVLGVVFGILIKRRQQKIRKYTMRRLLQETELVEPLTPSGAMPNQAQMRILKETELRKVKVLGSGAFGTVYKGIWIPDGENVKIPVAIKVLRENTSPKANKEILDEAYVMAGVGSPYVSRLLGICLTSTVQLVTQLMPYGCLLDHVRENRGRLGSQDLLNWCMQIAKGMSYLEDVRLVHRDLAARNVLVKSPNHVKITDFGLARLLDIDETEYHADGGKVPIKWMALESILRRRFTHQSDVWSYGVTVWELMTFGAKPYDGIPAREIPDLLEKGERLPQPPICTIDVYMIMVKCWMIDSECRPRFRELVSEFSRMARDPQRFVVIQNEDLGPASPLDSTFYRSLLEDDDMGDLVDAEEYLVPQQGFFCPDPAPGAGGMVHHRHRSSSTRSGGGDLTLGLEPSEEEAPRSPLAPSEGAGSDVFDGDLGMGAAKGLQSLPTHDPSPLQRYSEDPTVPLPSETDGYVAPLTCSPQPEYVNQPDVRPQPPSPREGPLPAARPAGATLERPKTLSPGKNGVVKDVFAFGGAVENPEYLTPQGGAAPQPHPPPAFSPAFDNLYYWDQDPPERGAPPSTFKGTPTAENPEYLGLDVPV

IC50 [1] [nM] | IC50 [2] [nM] | GI50 [3] [nM] | Cl_obs ([5]; IV 3 mg/kg) [mL/min/kg] | AUC(0-inf) ([5]; IV 3 mg/kg) [ng·h/mL] | AUC(0-t) ([5]; IV 3 mg/kg) [ng·h/mL] | Vd ([5]; IV 3 mg/kg) [L/kg] | half-life ([5]; IV 3 mg/kg) [min] | bioavailability [5, 7] [%] | AUC(0-inf) [5, 8] [ng·h/mL] | AUC(0-t) [5, 8] [ng·h/mL] | Cmax [5, 8] [ng/mL] | Tmax [5, 8] [h] | half-life [5, 8] [min] | SMILES | also measured
< 10 | < 10 | 1 to 5 | – | – | – | – | – | – | – | – | – | – | – | CN1CCC[C@@H]1/C=C/C(=O)Nc1ccc2ncnc(Nc3ccc(OCc4ccccn4)c(Cl)c3)c2c1OCC(F)F [Example 11, (R,E)-N-(4-((3-chloro-4-(pyridin-2-ylmethoxy)phenyl)amino)-5-(2,2-difluoroethoxy)quinazolin-6-yl)-3-(1-methylpyrrolidin-2-yl)acrylamide] | T/C (%) ([4]; QD×15, PO, day 15): 5.71%
< 10 | 100 to 1000 | 1 to 5 | 32.2 ± 0.5 | 1550 ± 23 | 1510 ± 26 | 14 ± 1.3 | 301 ± 27 | 25 ± 11.2 | 1470 ± 655 | 1260 ± 561 | 86.3 ± 32.7 | 5.33 ± 2.89 | 469 ± 223 | COc1c(NC(=O)/C=C/[C@H]2CCCN2C(C)C)ccc2ncnc(Nc3ccc(OCc4ccccn4)c(Cl)c3)c12 [Example 24, (R,E)-N-(4-((3-chloro-4-(pyridin-2-ylmethoxy)phenyl)amino)-5-methoxyquinazolin-6-yl)-3-(1-isopropylpyrrolidin-2-yl)acrylamide] | T/C (%) ([4]; QD×14, PO, day 14): 12.4%
– | – | – | 84.3 ± 5.1 | 595 ± 37 | 565 ± 40 | 47.5 ± 7.5 | 390 ± 46.8 | 0.992 | 23.8 | 18.7 | 6.72 | 0.25 | 143 | CN1CCC[C@H]1/C=C/C(=O)Nc1ccc2ncnc(Nc3ccc(OCc4ccccn4)c(Cl)c3)c2c1 [Control compound 2, reference compound] | oral absorption (in words) ([5]; administrated orally): hardly absorbed; concentration at 2 h ([6]; in vivo, whole blood, read-out: Blood drug concentration): 1.14 ng/mL
< 10 | < 10 | 1 to 5 | 52.3 ± 5.7 | 964 ± 104 | 953 ± 105 | 18.7 ± 2.9 | 247 ± 13.2 | 23.3 ± 7.4 | 750 ± 238 | 719 ± 233 | 53.7 ± 12.4 | 2 | 325 ± 20.4 | CCCOc1c(NC(=O)/C=C/[C@H]2CCCN2C)ccc2ncnc(Nc3ccc(OCc4ccccn4)c(Cl)c3)c12 [Example 13, (R,E)-N-(4-((3-chloro-4-(pyridin-2-ylmethoxy)phenyl)amino)-5-propoxyquinazolin-6-yl)-3-(1-methylpyrrolidin-2-yl)acrylamide] | concentration at 2 h ([6]; whole blood, read-out: Blood drug concentration): 273 ng/mL; Kp at 2 h ([6]; brain / whole blood, read-out: Brain tissue/blood ratio): 0.465; concentration at 2 h ([6]; brain, NA: Exposure was too low to be counted, read-out: Brain tissue concentration): 127 ng/g
< 10 | < 10 | < 1 | – | – | – | – | – | – | – | – | – | – | – | [2H]C([2H])([2H])Oc1c(NC(=O)/C=C/[C@H]2CCCN2C)ccc2ncnc(Nc3ccc(OCc4ccccn4)c(Cl)c3)c12 [Example 33, (R,E)-N-(4-((3-chloro-4-(pyridin-2-ylmethoxy)phenyl)amino)-5-(methoxy-d3)quinazolin-6-yl)-3-(1-methylpyrrolidin-2-yl)acrylamide] | T/C (%) ([4]; QD×11, PO, day 11): 12.4%
